# Results reported in patent US8815948B2, “High volume and alternative methods of delivering homeopathic remedies” (Dovetail Technologies, Inc., priority 2004, dated 2014).
# Tested on: cat with Gran Mal seizures
# Test: Taurox SB added to food of a cat with Gran Mal seizures
# Type: in vivo
# Settings: cat Misty, before Taurox SB
# Description: The homeopathic remedy may be included in food. For example, Misty, a cat who had been accepted by a rescue shelter, suffered with severe, potentially life-threatening Gran Mal seizures about three times a day and almost every other day. […] Overall, she averaged a few a month while being treated.
# The homeopathic remedy may also be included in food. […] This invention applies to all foods from treats treated with the homeopathic on site, to the bulk supplied food while making it, to massive watering systems used to water livestock or irrigate fields. It applies to all forms of life including human, animal and plant.
substance,measurement,value
Bromide salts,benefit on seizures of earlier medication,without significant benefits
